In patent US7118895B2, “Process for producing aglycon by using diglycosidase and flavor-improved food containing the aglycon and converting agent to be used in the process” (Amano Enzyme Inc., priority 2000, dated 2006):

System: Crude diglycosidase
Test: Examination of substrate concentration in the conversion into isoflavone aglycons by diglycosidase using soybean materials
Assay type: biochemical, Penicillium multicolor IAM7153
Summary of the method: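 Soybean materials (roasted soy flour, soymilk, defatted soybean, concentrated soy protein) at 2–30% (w/v) in 20 mM acetate pH 4.0 were reacted with crude diglycosidase at 55° C with shaking; enzyme solution added was 1.88 AU/mL. Samples taken at 0, 1, 3 and 6 h were ethanol-extracted and analyzed by HPLC.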

Decomposition efficiency of genistin family in defatted soybean (substrate concentration 2%, heat treatment of enzyme no, reaction time 0 h): 15.1
Decomposition efficiency of genistin family in defatted soybean (substrate concentration 2%, heat treatment of enzyme no, reaction time 1 h): 68.6
Decomposition efficiency of genistin family in defatted soybean (substrate concentration 2%, heat treatment of enzyme no, reaction time 3 h): 83.0
Decomposition efficiency of genistin family in defatted soybean (substrate concentration 2%, heat treatment of enzyme no, reaction time 6 h): 88.6
Decomposition efficiency of genistin family in defatted soybean (substrate concentration 2%, heat treatment of enzyme yes, reaction time 6 h): 18.0
Decomposition efficiency of genistin family in defatted soybean (substrate concentration 5%, heat treatment of enzyme no, reaction time 0 h): 14.2
Decomposition efficiency of genistin family in defatted soybean (substrate concentration 5%, heat treatment of enzyme no, reaction time 1 h): 61.2
Decomposition efficiency of genistin family in defatted soybean (substrate concentration 5%, heat treatment of enzyme no, reaction time 3 h): 69.9
Decomposition efficiency of genistin family in defatted soybean (substrate concentration 5%, heat treatment of enzyme no, reaction time 6 h): 80.7
Decomposition efficiency of genistin family in defatted soybean (substrate concentration 5%, heat treatment of enzyme yes, reaction time 6 h): 15.4
Decomposition efficiency of genistin family in defatted soybean (substrate concentration 10%, heat treatment of enzyme no, reaction time 0 h): 14.1
Decomposition efficiency of genistin family in defatted soybean (substrate concentration 10%, heat treatment of enzyme no, reaction time 1 h): 57.2
Decomposition efficiency of genistin family in defatted soybean (substrate concentration 10%, heat treatment of enzyme no, reaction time 3 h): 64.0
Decomposition efficiency of genistin family in defatted soybean (substrate concentration 10%, heat treatment of enzyme no, reaction time 6 h): 70.3
Decomposition efficiency of genistin family in defatted soybean (substrate concentration 10%, heat treatment of enzyme yes, reaction time 6 h): 14.5
SMILES: O=c1c(-c2ccc(O)cc2)coc2cc(O)cc(O)c12 [genistein]
